Columns and labels:
Type in all cases: cell-based, human
p73 = experiment: Immunoblot of p73
Experimental: (§1) Immunoblot analysis. Cells were seeded in 60mm plates as described above and treated accordingly. Cells were lifted by gently scraping the plates, washed once with ice cold PBS and then lysed in lysis buffer (PBS, 1% Triton X-100, 10% glycerol) containing protease inhibitors pepstatin A (0.5 μg/ml), leupeptin (0.5 μg/ml), aprotinin (5 μg/ml), and PMSF (100 μg/ml) for 10 minutes on ice. Insoluble material was removed by centrifugation at 14,000 rpm for 15 minutes at 4° C. The supernatants were then supplemented with SDS at a final concentration of 2% and stored at −80° C. Protein concentrations were determined using the DC Protein Assay (BioRad Laboratories; Hercules, CA, USA) according to the manufacturer's instructions. 50 μg of protein per sample (unless otherwise indicated) were separated on NuPAGE 4-12% Bis-Tris gels (Invitrogen; Carlsbad, CA, USA) and transferred to nitrocellulose membranes (BioRad). Following transfer, membranes were blocked for 1 hour at room temperature in Tris-buffered saline (TBS) containing 0.1% Tween-20 and 5% nonfat dry milk and incubated overnight at 4° C. with primary antibody at a dilution of 1:2,000(actin), 1:1,000(cytochrome c, COX IV, Bax, Bak, p53, p38, P-p38), 1:500(P-JNK, JNK), 1:250 (AC, p73), or 1:400(LAMP-1, cathepsin B). Overnight incubations were performed in 5% milk in TBS-Tween. Following overnight incubation, membranes were washed three times for 10 minutes each in TBS-Tween and incubated for 1 hour at room temperature with secondary antibody in 5% milk TBS-Tween at a dilution 1:5,000 (goat anti-mouse IgG) or 1:50,000 (goat anti-rabbit). Membranes were then washed three times more and incubated for 5 minutes at room temperature with Super Signal HRP substrate (Pierce Biotechnology Inc.; Rockford, IL, USA).

PPC-1/pcDNA3 cells = experiment: MTS cell viability assay in PPC-1/pcDNA3 cells with kinase inhibitors; settings: 20 μM SB-203580, 40 μM SP600125, LCL204 8 hours
Experimental: MTS cytotoxicity assays for LCL204 treatments. Cell viability was determined using the CellTiter 96 AQueous One Solution Cell Proliferation Assay (Promega; Madison, Wis., USA). 1×10^4 cells per well were seeded in 96-well plates overnight. The next day media was removed and replaced with either 100 μl media with vehicle control or media containing LCL204 at desired concentrations. Assays were carried out according to manufacturer's instruction as previously described (60). For experiments using enzyme inhibitors and LCL204, media was removed and replaced with 50 μl media containing vehicle only or indicated inhibitor. Cells were pretreated 1 hour at 37° C. before adding 50 μl media containing vehicle, inhibitor only, LCL204 only (2× concentration), or a combination. The remainder of the assay was carried out as described above.
Stable transfections. Both CMV-TAM67 and pcDNA3 vectors were from Dr. Michael Birrer (National Cancer Institute; Rockville, Md.). PPC-1 cells (7×10^5) were transfected with 4 μg of DNA in 60 mm dishes using FuGENE6 according to the manufacturer's instructions. Stably transfected clones were selected in 400 μg/mL G418 (Sigma). TAM67 was detected by Western blot analysis using an antibody for c-Jun (Ab-1, Oncogene) as described above.

Bak = Bak protein level and Bak foci (Western blot, confocal microscopy); settings: PPC-1 transfectants, with LCL204 7.5 μM
Experimental: as §1
Confocal Microscopy and Immunocytochemistry. DU145 cells were grown in 4.3 cm^2 chamber slides (Nalge Nunc) and transfected with YFPmito alone or with the dominant-negative inhibitor of Drp1(K38A) (64) using FuGENE6 (Roche; Indianapolis, IN) according to the manufacturer's instructions using 1 μg of total DNA per chamber. 24 hr after transfection and 30 min prior to treatment with 15 μM LCL204, cells were exposed to zVAD-fmk (50 μM). The slides were fixed with 4% paraformaldehyde for 20 min then permeabilized with 0.2% Triton X-100 for 15 min, followed by blocking with 4% bovine serum albumin for 45 min at RT. Cells were probed with rabbit polyclonal 2-14 anti-Bak antibody (1:5000; BioChem) for 2 hr then stained with goat anti-rabbit Alexa Fluor 543 antibodies (1:250; Molecular Probes) for 45 min. After washing, cells were imaged using the 63x objective of an LSM 510 Zeiss confocal microscope.

C[S+]([O-])c1ccc(-c2nc(-c3ccncc3)c(-c3ccc(F)cc3)[nH]2)cc1 (stereo not shown) [SB-203580, reference compound]
basal p73 levels, inhibitor alone (p73; PPC-1/pcDNA3 and PPC-1/TAM67 cells, 5 hours): lowered basal p73 levels | effect of kinase inhibitor on LCL204-induced p73 induction (p73; PPC-1 transfectants, with LCL204 7.5 μM): blocked the LCL204-induced p73 up-regulation | effect on LCL204 cell killing (PPC-1/pcDNA3 cells): inhibited cell killing to a similar extent | effect of p38 MAPK inhibitor on LCL204-mediated Bak protein levels (Bak): did not appear to block

Source: US8592419B2, “Ceramides and apoptosis-signaling ligand” (MUSC Foundation for Research Development, priority 2004, dated 2013)
